From patent US4053466A, “(E)-2-[p-(β-substituted-vinyl)phenyl]alkanoic acids” (Kohjin Co., Ltd., priority 1974, dated 1977)

Assays:
[1] = Farmaco. Edizione Scientifica, 11, 167 (1956); cited from earlier work
[2] = tested on: rabbit platelet-rich plasma; assay: inhibition of collagen-induced platelet aggregation; format: cell-based; conditions: 10^-4 M, 0.02N NaOH, 3 minute incubation
Protocol: The activity was evaluated after a 3 minute incubation of a mixture of the platelet aggregation inhibitor and rabbit platelet-rich plasma. […] Accordingly,the relative potency of inhibition of the test compound to aspirin (RASP) at the same concentration was chosen as a direct measure of inhibition potency.

[3] = tested on: phenylquinone-induced writhing; assay: analgesic activity, Phenylquinone-Writhing Syndrome method; format: in vivo, mouse (ddN strain); conditions: for number of positive mice: fewer writhings than half of control; for ED50: Mus musculus, po, phenylquinone writhing, positive = fewer writhings than half of control
Protocol: Analgesic activity was determined according to the Phenylquinone-Writhing Syndrome method. ddN strain mice, each weighing about 18 to 22 g were used. Chemical pain was induced by an intraperitoneal injection of 0.1 ml/10 g body weight of 0.03% phenylquinone in 5% aqueous ethanol into the mice. The number of writhings was measured for 15 minutes from 5 minutes after challenge of phenylquinone. Each dose of the drug was given 30 minutes before challenge of phenylquinone.
Ed50 -value was calculated from the number of positive animals showing fewer writhings than half of the matched control group.

[4] = tested on: carrageenin-induced hind paw edema; assay: anti-inflammatory activity, carrageenin-induced hind paw edema; format: in vivo, rat (male Wistar); conditions: for number of positive rats: inhibition of 25% or more vs control at 3 hours; for ED50: Rattus norvegicus, po, carrageenin edema, positive = inhibition of 25% or more at 3 hours
Protocol: The anti-inflammatory activity of the compounds against carrageenin-inducededema was determined according to procedure described in C. A. Winter et al., Proc. Soc. Exp. Biol. Med., 111, 544 (1962). Male Wistar rats, each weighing 100 to 120 g were used. Hind paw edema was induced by sub-cutaneous injection of 0.1 ml of 1% carrageenin solution into the left foot pad of each rat. Hind paw volume was measured before and after challenge of carrageenin by immersion of the hind paw down to the lateral malleolus into a glass cylinder containing water. Each dose of the test compound was orally administered one hour before challenge of carrageenin.
ED50 -value was calculated from the number of positive animals showing an inhibitory activity of 25% or more than the matched control group at 3 hours after carrageenin challenge.

In the case of `O=C(O)Cc1ccc(C=Cc2ccccc2)cc1` [4-stilbene-acetic acid], the anti-cholesterinemic activity [1] is listed as “anti-cholesterinemic activity”.
For `O=C(O)Cc1ccc(/C=C/c2cccs2)cc1` [Example 4, (E)-p-(β-2-Thienylvinyl)phenylacetic Acid], the “RASP (relative potency of inhibition of the test compound to aspirin)” value [2] was 1.0.
In the case of `CC(C)Cc1ccc(C(C)C(=O)O)cc1` (stereo not shown) [Ibuprofen, 2-(p-isobutylphenyl)propionic acid, reference compound], the “Inhibition in (%) of writhing” value ([3]; 25 mg/kg p.o.) is reported as 25.5%, the “Number of Writhings/15 min., Mean ± S.E.” value ([3]; 25 mg/kg p.o.) is reported as 27.4 ± 3.3 and the “number of positive mice” value ([3]; 25 mg/kg p.o.) is reported as 2. For the same compound, the “Inhibition in (%) of writhing” value ([3]; 50 mg/kg p.o.) was 45.7%, the “Number of Writhings/15 min., Mean ± S.E.” value ([3]; 50 mg/kg p.o.) was 20.0 ± 1.5 and the “number of positive mice” value ([3]; 50 mg/kg p.o.) was 4. For the same compound, the “Inhibition in (%) of writhing” value ([3]; 100 mg/kg p.o.) was 64.4%, the “Number of Writhings/15 min., Mean ± S.E.” value ([3]; 100 mg/kg p.o.) was 13.1 ± 1.9 and the “number of positive mice” value ([3]; 100 mg/kg p.o.) was 8. For the same compound, the “Inhibition in (%) of writhing” value ([3]; 200 mg/kg p.o.) was 76.4%, the “Number of Writhings/15 min., Mean ± S.E.” value ([3]; 200 mg/kg p.o.) was 8.7 ± 1.6 and the “number of positive mice” value ([3]; 200 mg/kg p.o.) was 10. For the same compound, the “Inhibition in (%) of writhing” value ([3]; 400 mg/kg p.o.) was 94.8%, the “Number of Writhings/15 min., Mean ± S.E.” value ([3]; 400 mg/kg p.o.) was 1.9 ± 0.8 and the “number of positive mice” value ([3]; 400 mg/kg p.o.) was 10. The ED50 [3] was 50 mg/kg, the “Hind Paw Swelling, Mean ± S.E.” value ([4]; 10 mg/kg p.o., 2 hours) was 57.4 ± 3.9% and the “Percent Inhibition of hind paw swelling” value ([4]; 10 mg/kg p.o., 2 hours) was 13.6%. For the same compound, the “Hind Paw Swelling, Mean ± S.E.” value ([4]; 10 mg/kg p.o., 3 hours) was 60.8 ± 4.7%, the “Percent Inhibition of hind paw swelling” value ([4]; 10 mg/kg p.o., 3 hours) was 15.5% and the “number of positive rats” value ([4]; 10 mg/kg p.o.) was 1. For the same compound, the “Hind Paw Swelling, Mean ± S.E.” value ([4]; 20 mg/kg p.o., 2 hours) was 52.6 ± 3.4%, the “Percent Inhibition of hind paw swelling” value ([4]; 20 mg/kg p.o., 2 hours) was 20.9% and the “Hind Paw Swelling, Mean ± S.E.” value ([4]; 20 mg/kg p.o., 3 hours) was 56.2 ± 2.7%. The “Percent Inhibition of hind paw swelling” value ([4]; 20 mg/kg p.o., 3 hours) was 21.9%, the “number of positive rats” value ([4]; 20 mg/kg p.o.) was 4 and the “Hind Paw Swelling, Mean ± S.E.” value ([4]; 40 mg/kg p.o., 2 hours) was 47.5 ± 4.0%. For the same compound, the “Percent Inhibition of hind paw swelling” value ([4]; 40 mg/kg p.o., 2 hours) was 28.6%, the “Hind Paw Swelling, Mean ± S.E.” value ([4]; 40 mg/kg p.o., 3 hours) was 51.2 ± 4.0% and the “Percent Inhibition of hind paw swelling” value ([4]; 40 mg/kg p.o., 3 hours) was 28.9%. For the same compound, the “number of positive rats” value ([4]; 40 mg/kg p.o.) was 7, the “Hind Paw Swelling, Mean ± S.E.” value ([4]; 80 mg/kg p.o., 2 hours) was 41.8 ± 2.3% and the “Percent Inhibition of hind paw swelling” value ([4]; 80 mg/kg p.o., 2 hours) was 37.2%. For the same compound, the “Hind Paw Swelling, Mean ± S.E.” value ([4]; 80 mg/kg p.o., 3 hours) was 43.9 ± 2.4%, the “Percent Inhibition of hind paw swelling” value ([4]; 80 mg/kg p.o., 3 hours) was 38.9% and the “number of positive rats” value ([4]; 80 mg/kg p.o.) was 9. For the same compound, the ED50 [4] was 24.3 mg/kg and the “RASP (relative potency of inhibition of the test compound to aspirin)” value [2] was 0.6.
With `CC(C(=O)O)c1ccc(/C=C/c2cccs2)cc1` (stereo not drawn) [XG-28, (E)-2-[p-(β-2-Thienylvinyl)phenyl]propionic Acid] the “Inhibition in (%) of writhing” value ([3]; 0.5 mg/kg p.o.) was 13.5%, the “Number of Writhings/15 min., Mean ± S.E.” value ([3]; 0.5 mg/kg p.o.) was 16.8 ± 2.1 and the “number of positive mice” value ([3]; 0.5 mg/kg p.o.) was 1. The “Inhibition in (%) of writhing” value ([3]; 5 mg/kg p.o.) was 25.8%, the “Number of Writhings/15 min., Mean ± S.E.” value ([3]; 5 mg/kg p.o.) was 14.4 ± 6.0 and the “number of positive mice” value ([3]; 5 mg/kg p.o.) was 2. For the same compound, the “Inhibition in (%) of writhing” value ([3]; 10 mg/kg p.o.) was 29.4%, the “Number of Writhings/15 min., Mean ± S.E.” value ([3]; 10 mg/kg p.o.) was 13.7 ± 2.4 and the “number of positive mice” value ([3]; 10 mg/kg p.o.) was 2. For the same compound, the “Inhibition in (%) of writhing” value ([3]; 25 mg/kg p.o.) was 71.1%, the “Number of Writhings/15 min., Mean ± S.E.” value ([3]; 25 mg/kg p.o.) was 5.6 ± 1.8 and the “number of positive mice” value ([3]; 25 mg/kg p.o.) was 7. The “Inhibition in (%) of writhing” value ([3]; 50 mg/kg p.o.) was 52.1%, the “Number of Writhings/15 min., Mean ± S.E.” value ([3]; 50 mg/kg p.o.) was 9.3 ± 1.6 and the “number of positive mice” value ([3]; 50 mg/kg p.o.) was 4. For the same compound, the “Inhibition in (%) of writhing” value ([3]; 100 mg/kg p.o.) was 63.9%, the “Number of Writhings/15 min., Mean ± S.E.” value ([3]; 100 mg/kg p.o.) was 7.0 ± 2.0 and the “number of positive mice” value ([3]; 100 mg/kg p.o.) was 9. For the same compound, the “Inhibition in (%) of writhing” value ([3]; 200 mg/kg p.o.) was 60.3%, the “Number of Writhings/15 min., Mean ± S.E.” value ([3]; 200 mg/kg p.o.) was 7.7 ± 1.2 and the “number of positive mice” value ([3]; 200 mg/kg p.o.) was 5. The ED50 [3] was 14.1 mg/kg, the “Hind Paw Swelling, Mean ± S.E.” value ([4]; 1 mg/kg p.o., 2 hours) was 73.7 ± 3.7% and the “Percent Inhibition of hind paw swelling” value ([4]; 1 mg/kg p.o., 2 hours) was 2.4%. The “Hind Paw Swelling, Mean ± S.E.” value ([4]; 1 mg/kg p.o., 3 hours) was 73.9 ± 2.6%, the “Percent Inhibition of hind paw swelling” value ([4]; 1 mg/kg p.o., 3 hours) was -1.0% and the “number of positive rats” value ([4]; 1 mg/kg p.o.) was 0. The “Hind Paw Swelling, Mean ± S.E.” value ([4]; 2.5 mg/kg p.o., 2 hours) was 67.0 ± 2.6%, the “Percent Inhibition of hind paw swelling” value ([4]; 2.5 mg/kg p.o., 2 hours) was 11.3% and the “Hind Paw Swelling, Mean ± S.E.” value ([4]; 2.5 mg/kg p.o., 3 hours) was 70.12 ± 2.1%. The “Percent Inhibition of hind paw swelling” value ([4]; 2.5 mg/kg p.o., 3 hours) was 4.0%, the “number of positive rats” value ([4]; 2.5 mg/kg p.o.) was 0 and the “Hind Paw Swelling, Mean ± S.E.” value ([4]; 5 mg/kg p.o., 2 hours) was 62.9 ± 3.2%. The “Percent Inhibition of hind paw swelling” value ([4]; 5 mg/kg p.o., 2 hours) was 16.8%, the “Hind Paw Swelling, Mean ± S.E.” value ([4]; 5 mg/kg p.o., 3 hours) was 68.2 ± 2.7% and the “Percent Inhibition of hind paw swelling” value ([4]; 5 mg/kg p.o., 3 hours) was 6.7%. The “number of positive rats” value ([4]; 5 mg/kg p.o.) was 1, the “Hind Paw Swelling, Mean ± S.E.” value ([4]; 10 mg/kg p.o., 2 hours) was 60.5 ± 2.3% and the “Percent Inhibition of hind paw swelling” value ([4]; 10 mg/kg p.o., 2 hours) was 19.8%. The “Hind Paw Swelling, Mean ± S.E.” value ([4]; 10 mg/kg p.o., 3 hours) was 65.7 ± 2.0%, the “Percent Inhibition of hind paw swelling” value ([4]; 10 mg/kg p.o., 3 hours) was 10.1% and the “number of positive rats” value ([4]; 10 mg/kg p.o.) was 0. The “Hind Paw Swelling, Mean ± S.E.” value ([4]; 20 mg/kg p.o., 2 hours) was 50.7 ± 3.7%, the “Percent Inhibition of hind paw swelling” value ([4]; 20 mg/kg p.o., 2 hours) was 33.6% and the “Hind Paw Swelling, Mean ± S.E.” value ([4]; 20 mg/kg p.o., 3 hours) was 56.0 ± 4.1%. For the same compound, the “Percent Inhibition of hind paw swelling” value ([4]; 20 mg/kg p.o., 3 hours) was 25.2%, the “number of positive rats” value ([4]; 20 mg/kg p.o.) was 6 and the “Hind Paw Swelling, Mean ± S.E.” value ([4]; 40 mg/kg p.o., 2 hours) was 46.8 ± 2.6%. The “Percent Inhibition of hind paw swelling” value ([4]; 40 mg/kg p.o., 2 hours) was 38.7%, the “Hind Paw Swelling, Mean ± S.E.” value ([4]; 40 mg/kg p.o., 3 hours) was 48.6 ± 3.1% and the “Percent Inhibition of hind paw swelling” value ([4]; 40 mg/kg p.o., 3 hours) was 35.1%. The “number of positive rats” value ([4]; 40 mg/kg p.o.) was 8, the “Hind Paw Swelling, Mean ± S.E.” value ([4]; 80 mg/kg p.o., 2 hours) was 49.8 ± 2.6% and the “Percent Inhibition of hind paw swelling” value ([4]; 80 mg/kg p.o., 2 hours) was 31.3%. For the same compound, the “Hind Paw Swelling, Mean ± S.E.” value ([4]; 80 mg/kg p.o., 3 hours) was 49.3± 2.8%, the “Percent Inhibition of hind paw swelling” value ([4]; 80 mg/kg p.o., 3 hours) was 30.9% and the “number of positive rats” value ([4]; 80 mg/kg p.o.) was 7. For the same compound, the ED50 [4] was 23.3 mg/kg and the “RASP (relative potency of inhibition of the test compound to aspirin)” value [2] was 1.6.
With `CC(C)Cc1ccc(CC(=O)O)cc1` [p-Isobutylphenylacetic acid, reference compound] the “RASP (relative potency of inhibition of the test compound to aspirin)” value [2] was 0.5.
